Patent US20030040531A1, “Remedies for reperfusion injury containing integrin alphanubeta 3 antagonist” (priority 2000, published 2003)

Columns and labels:
[1] = test system: dog vascular smooth muscle cells; assay: adhesion of dog vascular smooth muscle cells to bovine vitronectin; type: cell-based; conditions: Canis lupus familiaris, read-out: concentration (IC50) necessary for inhibition of adhesion to vitronectin
Experimental: The adhesion of vascular smooth muscle cells to immobilized human vitronectin was measured in accordance with the method of Liaw et al. (L. Liaw et al., Circ. Res., 74, 214 (1994)). A Dulbecco's phosphate buffer (Dulbecco's PBS(−)) solution of human serum-derived vitronectin adjusted to a concentration of 4 μg/ml was first added to wells (50 μl/well) of a microplate (Maxisorp), and a reaction for immobilization was allowed to proceed at 4° C. overnight. After washing twice with 150 μl of Dulbecco's PBS (−), Dulbecco's PBS (−) containing 10 mg/ml of bovine serum albumin was added, followed by blocking at 37° C. for one hr. The microplate was then washed twice with 150 μl of Dulbecco's PBS (−) to prepare an assay plate.
Next, 50 μl of a Dulbecco's modified Eagle's basal medium containing 20 mg/ml of bovine serum albumin with a medicament added thereto was added to the wells of the human vitronectin-coated assay microplate, followed by pre-cultivation under 5% carbon dioxide at 37° C. for 10 min. Thereafter, 50 μl of the Dulbecco's modified Eagle's basal medium with human vascular smooth muscle cells suspended therein was added thereto, and the plate was thoroughly stirred. A reaction was allowed to proceed under 5% carbon dioxide at 37° C. for 90 min. The reaction solution containing non-adherent cells was then removed, followed by washing three times with Dulbecco's PBS (−). For the adhered cells, 100 μl of Dulbecco's PBS (−) containing 4% paraformaldehyde was added, and immobilization was allowed to proceed at room temperature for 10 min. Next, 100 μl of a Dulbecco's PBS (−) containing 0.5% Toluidine Blue and 4% paraformaldehyde was added, and staining was allowed to proceed at room temperature for 5 min, followed by thorough washing with distilled water. The inside of the wells was then air-dried, and 1% aqueous sodium dodecylsulfate solution was then added to perform cytolysis. The absorbance of the microplate thus obtained was measured at 595 nm. […] The inhibition was calculated by the following equation. IC50 was determined from a primary regression line of the logarithm of each concentration of the test compound and the logarithm of (100−inhibition)/inhibition. [formula]
Rat vascular smooth muscle cells were cultivated in a medium composed of a mixture of equal amounts of 15% fetal calf serum-containing 199 medium and RPMI 1640 medium. Separately, hamster and dog vascular smooth muscle cells were cultivated in a 10% fetal calf serum-containing Dulbecco's modified Eagle's basal medium. These cultivated cells were then suspended in a Dulbecco's modified Eagle's basal medium to concentrations of 3×10^5 cells/ml (rat), 3×10^5 cells/ml (hamster), and 4×10^5 cells /ml (dog), respectively. Rat vitronectin was used in the adhesion system of rats and hamsters, while bovine vitronectin was used in the adhesion system of dogs.

[2] = test system: rat acute myocardial ischemia-reperfusion model; assay: rat acute myocardial ischemia-reperfusion model; type: in vivo; conditions: for myocardial infarct size (proportion of the infarct area in the left ventricle): average value±SE, n=5
Experimental: Male Wistar rats (330 to 420 g) were subjected to controlled respiration using an artificial respirator under pentobarbital anesthesia (60 mg/kg, i.p.), and the blood pressure and the heart rate were measured through a blood pressure amplifier and a heart rate unit. Further, for the ischemia of the myocardium, an increase in voltage of R-wave in the II leading in an electrocardiogram was confirmed with a monitor through a bioelectricity amplifier. The rats underwent thoracotomy, and the coronary artery, together with the myocardium, was then occluded using a suture with a needle. Ischemia for 3 min and reperfusion for 5 min were followed by ischemia for 45 min and reperfusion for 45 min. Medicaments tested and concentrations thereof were 3 mg/kg+3 mg/kg/hr (bolus +infusion) (L; low dose group) and 6 mg/kg+3 mg/kg/hr (bolus +infusion) (H; high dose group) for the compound represented by formula (V); 3 mg/kg+3 mg/kg/hr (bolus +infusion) for the compound represented by formula (VI); 3 mg/kg+3 mg/kg/hr (bolus +infusion) (L; low dose group) and 6 mg/kg+3 mg/kg/hr (bolus +infusion) (H; high dose group) for the compound represented by formula (IV); 5 mg/kg+5 mg/kg/hr(bolus +infusion)(L; low dose group) and 10 mg/kg+10 mg/kg/hr (bolus +infusion) (H; high dose group) for the compound represented by formula (VII); and 1 mg/kg+1 mg/kg/hr (bolus+infusion) (L; low dose group) and 6 mg/kg+6 mg/kg/hr (bolus+infusion) (H; high dose group) for the compound represented by formula (VIII). For a control group (group C), a 10% (v/v) dimethyl sulfoxide/5% glucose solution was administered, and each medicament was dissolved in the same solvent. The dose volume was 3 ml/kg+3 ml/kg/h (bolus+infusion). The medicament was continuously administered through an infusion pump for the period starting with one min before the ischemia and ending with the completion of the experiment. After reperfusion for 45 min, the rats were slaughtered by excessive administration of pentobarbital, and the heart was removed. After perfusion with a Ringer solution, perfusion staining was carried out with 1.5% triphenyltetrazolium chloride, and the proportion of the infarct area in the left ventricle was quantitatively determined. For animals used in the experiment, each group consisted of 5 rats.

U937 cells = assay: adhesion of human monocytes (U937 cells) to human activated vascular endothelial cells; type: cell-based; conditions: average on three wells±SD, control group 4522±1027
Experimental: The adhesion of human monocytes to vascular endothelial cells was measured with reference to the method of Murphy et al. (J. F. Murphy et al., Biochem. J. 304, 537 (1994)). Human funicular venoendothelial cells (4×10^4/well), which had been cultivated in a type-I collagen-coated flask containing a 199 medium containing an endothelial cell growth factor (15 μg/ml), heparin (5 U/ml), and 20% fetal calf serum, were cultivated using a type-I collagen-coated microplate in the above medium under 5% carbon dioxide at 37° C. for 2 days to prepare a layer of vascular endothelial cells. The layer of vascular endothelial cells was washed with PBS (−) and was then cultivated in PBS (−) containing 1 U/ml bovine thrombin, 5 mM CaCl2, and 5 mM MgCl2 for 5 min, followed -by washing with PBS(−) containing 10^-6 M D-phenylalanyl-L-prolyl-L-argininechloromethane and with PBS(−).
Next, U937 cells, which had been cultivated in an RPMI 1640 medium containing 10% fetal calf serum, were cultivated in the above medium containing 6 μM 2′,7′-bis(carboxyethyl)carboxyfluorescein tetraacetoxymethyl ester under 5% carbon dioxide at 37° C. for one hr, were washed with PBS (−), and were subjected to fluorescent labeling. The labeled U937 cells (2×10^5/well), the medicament, and 100 μl of an RPMI 1640 medium containing 1% fetal calf serum were added onto the layer of vascular endothelial cells, and an adhesion reaction was allowed to proceed under 5% carbon dioxide at 37° C. for 10 min. Next, nonadherent cells were removed, and 50 mM Tris HCl (pH 8.4) containing 0.1% sodium dodecylsulfate was added to elute the fluorescent dye, followed by fluorometry (excitation wavelength 485 nm, measurement wavelength 530 nm).

[3] = 3 mg/kg+3 mg/kg/hr (bolus+infusion)
[4] = 6 mg/kg+3 mg/kg/hr (bolus+infusion), group H

O=C(NCC(NS(=O)(=O)c1ccccc1)C(=O)O)c1ccc(N2CCC(NC3=NCCCN3)CC2)c(F)c1 (stereo in doubt) [formula (IV), (2S)-Benzenesulfonylamino-3-[3-fluoro-4-{4-(1,4,5,6-tetrahydropyrimidin-2-ylamino)-piperidin-1-yl}benzoylamino]propionic Acid]
IC50 [1]: 0.026 µM | reduction of myocardial infarct size as compared with group C [2, 3]: 17.8% | myocardial infarct size (proportion of the infarct area in the left ventricle) [2, 3]: 32.3±4.9% | reduction of myocardial infarct size as compared with group C [2, 4]: 35.1% | myocardial infarct size (proportion of the infarct area in the left ventricle) [2, 4]: 25.5±1.5% | influence on the blood pressure and the heart rate ([2]; doses at which the infarct inhibition action could be obtained): no influence | fluorescence intensity (adhered U937 cells) (U937 cells; 10^-6 M): 3710+969 arbitrary unit | fluorescence intensity (adhered U937 cells) (U937 cells; 10^-7 M): 4389+640 arbitrary unit | fluorescence intensity (adhered U937 cells) (U937 cells; 10^−4 M): -34+74 arbitrary unit | fluorescence intensity (adhered U937 cells) (U937 cells; 10^−5 M): 1968±187 arbitrary unit
